Assay results from article PMC8346995, “Synthesis, Characterization, In Vitro Anticancer Potentiality, and Antimicrobial Activities of Novel Peptide–Glycyrrhetinic-Acid-Based Derivatives” (Molecules, 2021).
In brackets after ≈: the same amount, converted by molar mass. Residues, ends and D or L forms follow the SMILES beside them. *: point of attachment. X1 = CC1(C(=O)*)CCC2(C)CCC3(C)C(=CC(=O)C4C5(C)CCC(O)C(C)(C)C5CCC43C)C2C1

Legend:
[1] = system: Pseudomonas aeruginosa ATCC7853; experiment: Well diffusion assay, Pseudomonas aeruginosa; format: cell-based
Experimental: (§1) The newly synthesized peptides 1–8 (compound 6 was not tested) was evaluated for their antimicrobial activity of against three pathogenic Gram-positive bacteria (Staphylococcus aureus ATCC25923, Streptococcus pneumoniaRCMB 010010, and Micrococcus Luteus), three pathogenic Gram-negative bacteria viz. Escherichia coli ATCC25922, Pseudomonas aeruginosa ATCC7853, and Proteus vulgaris RCMB 010085, and the yeast Candida albicans using the well diffusion method. […] The obtained data were documented for each derivative as the average diameter of the inhibition zones (IZ) in mm for the bacterial or the yeast growth around the discs (Table 2). […] Although Micrococcus Luteus bacteria is a normal commensal of human skin and the upper respiratory tract, it acts as an opportunistic pathogen and has been associated with various diseases including meningitis, septic arthritis, and endocarditis. […] Antimicrobial activity of the tested chemical peptides was determined by the well diffusion method for pathogenic bacteria having Gram-positive bacteria (Staphylococcus aureus ATCC25923, Streptococcus pneumonia, and Micrococcus luteus) and Gram-negative bacteria (Escherichia coli ATCC25922, Pseudomonas aeruginosa ATCC7853, and Proteus sp.) and Candida albicans as human pathogen yeast using the well diffusion method.

[2] = system: Escherichia coli ATCC25922; experiment: Well diffusion assay, Escherichia coli; format: cell-based
Experimental: as §1

[3] = system: Streptococcus pneumonia RCMB 010010; experiment: Well diffusion assay, Streptococcus pneumonia; format: cell-based; conditions: Streptococcus pneumonia RCMB 010010, well diffusion
Experimental: as §1

Micrococcus Luteus = experiment: Well diffusion assay, Micrococcus Luteus; format: cell-based
Experimental: as §1

[4] = system: Proteus vulgaris RCMB 010085; experiment: Well diffusion assay, Proteus vulgaris; format: cell-based; conditions: Proteus vulgaris RCMB 010085, well diffusion
Experimental: as §1

[5] = system: Staphylococcus aureus ATCC25923; experiment: Well diffusion assay, Staphylococcus aureus; format: cell-based
Experimental: as §1

[6] = system: human breast MCF-7 cancer cell line; experiment: MTT cytotoxicity assay, breast MCF-7 cancer cell line; format: cell-based; conditions: for IC50: Homo sapiens, MCF7, MTT, mean of three replicates, read-out: IC50 (µg/mL) ± SD MCF-7; for cytotoxicity percentage: MCF-7, 10 µg/mL
Experimental: (§2) Accordingly, all the newly synthesized GA-based peptides except 1 and 6 were screened for their cytotoxicity against three different human cancer cell lines: MCF-7, HCT-116, and HepG-2 cell lines at different concentrations (10, 5, 2.5, 1.25, and 0.625 µg/mL).
(§3) Human breast MCF-7, colon HCT-116, and liver HepG-2 carcinoma cell line were taken from Vacsera (Giza, Egypt). The culture was retained in RPMI 1640 medium with 1% antibiotic–antimycotic mixture (25 μg/mL amphotericin B, 10,000 μg/mL streptomycin sulfate, and 10,000 U/mL potassium penicillin), 1% L-glutamine, and complemented by 10% heat inactivated fetal bovine serum. […] This experiment was carried out according to the reported MTT assay method, and the absorbance was measured at 595 nm.

[7] = system: human colon HCT-116 cancer cell line; experiment: MTT cytotoxicity assay, colon HCT-116 cancer cell line; conditions: for IC50: Homo sapiens, HCT-116, read-out: IC50 (µg/mL) ± SD HCT-116
Experimental: as §2, §3

[8] = system: human normal skin fibroblasts cell line BJ-1; experiment: Cytotoxicity against normal skin fibroblasts BJ-1; format: cell-based; conditions: BJ-1, 10 µg/mL
Experimental: The frequency and severity of side effects to normal cells at therapeutic levels is one of the most critical factors that distinguish different anticancer drugs from each other. Accordingly, the GA peptides 1–8 were furthermore screened for their cytotoxicity at 10 µg/mL against the human normal skin fibroblasts cell line BJ-1 to determine their safety upon normal cells (Figure 4).

Candida albicans = experiment: Well diffusion assay, Candida albicans; format: cell-based
Experimental: as §1

[9] = system: human liver cancer (HepG-2) cell line; experiment: MTT cytotoxicity assay, liver HepG-2 cancer cell line; format: cell-based
Experimental: as §2, §3

MCF-7 cells = experiment: DNA fragmentation through DPA assay in MCF-7 cells; format: cell-based, human; conditions: treated MCF-7 cells; untreated 7.8%
Experimental: Caspases are a family of cysteine proteases that are responsible for launching the programmed cell death (apoptosis). […] Cell shrinkage, chromatin condensation, and DNA fragmentation are all apoptosis events, which need the involvement of caspase-7and caspase-3 [48, 54, 56].
Assessment of DNA fragmentation of the cells was done, as described by the reported method. Briefly, the cells were lysed for 15 min on ice with 0.5% (v/v) Triton X-100, 20 mM EDTA, and […] Tris (pH 8.0). Then, the cells were centrifuged to separate intact chromatin from DNA fragments for 20 min, at 27,000 Xg. Measurement of the amount of DNA was done using a diphenylamine reagent, and the optical density was measured at 600 nm.

Structure (SMILES)	Diameter of Inhibition Zone (mm) [1] [mm]	Diameter of Inhibition Zone (mm) [2] [mm]	Diameter of Inhibition Zone (mm) [3] [mm]	Diameter of Inhibition Zone (mm) (Micrococcus Luteus)	Diameter of Inhibition Zone (mm) [4] [mm]	Diameter of Inhibition Zone (mm) [5] [mm]	IC50 [6] [µg/mL]	cytotoxicity percentage ([7]; HCT-116, 10 µg/mL)	IC50 [7] [µg/mL]	melting point [°C]	cytotoxic effect on normal cells BJ-1 [8] [%]	Diameter of Inhibition Zone (mm) (Candida albicans)	cytotoxicity percentage [6]	cytotoxicity percentage ([9]; HepG-2, 10 µg/mL) [%]	IC50 ([9]; Homo sapiens, HepG2, MTT, mean of three replicates, read-out: IC50 (µg/mL) ± SD HepG-2) [µg/mL]	cytotoxicity percentage ([7]; human, 10 µg/mL) [%]	percentage of DNA fragmentation (MCF-7 cells) [%]
CNC(C)C1CCC(N)C(OC2C(N)CC(N)C(OC3OCC(C)(O)C(NC)C3O)C2O)O1 (stereo not shown) [GM, gentamicin, reference compound]	24.41 ± 0.18	26.3 ± 0.15	27.2 ± 0.80	24.4 ± 0.72	20.0 ± 0.30	25.4 ± 0.18											
COC(=O)C(CC(C)C)NC(=O)CNC(=O)CNC(=O)C1(C)CCC2(C)CCC3(C)C(=CC(=O)C4C5(C)CCC(OC(=O)CNC(=O)CNC(=O)OC(C)(C)C)C(C)(C)C5CCC43C)C2C1 (stereo not shown) [Compound 8, Methyl 2-(2-(2-(10-(2-(2-(Tert-butoxycarbonylamino)acetamido)acetoxy)-2,4a,6a,6b,9,9,12a-heptamethyl-13-oxo-1,2,3,4,4a,5,6,6a,6b,7,8,8a,9,10,11,12,12a,12b,13,14b-icosahydropicene-2-carboxamido)acetamido)acetamido)-4-methylpentanoate]	14 ± 0.16	15 ± 0.16	12 ± 0.22	30 ± 0.17		13 ± 0.24	6.9 ± 1.1 (≈ 7.45 µM)	97.10%	60.7 ± 0.6 (≈ 65.5 µM)								
CC1(C(=O)NCC(=O)NCC(=O)O)CCC2(C)CCC3(C)C(=CC(=O)C4C5(C)CCC(O)C(C)(C)C5CCC43C)C2C1 (stereo not shown) [Compound 3, 2-(2-(10-Hydroxy-2,4a,6a,6b,9,9,12a-heptamethyl-13-oxo-1,2,3,4,4a,5,6,6a,6b,7,8,8a,9,10,11,12,12a,12b,13,14b-icosahydropicene-2-carboxamido)acetamido)acetic acid]	15 ± 0.18	16 ± 0.31	17 ± 0.21	30 ± 0.25	17 ± 0.17	17 ± 0.32	5.1 ± 0.7 (≈ 8.72 µM)	97.66%	7.4 ± 0.4 (≈ 12.7 µM)	207 to 209	2	12 ± 0.23					
CCOC(=O)CNC(=O)CNC(=O)C1(C)CCC2(C)CCC3(C)C(=CC(=O)C4C5(C)CCC(O)C(C)(C)C5CCC43C)C2C1 (stereo not shown) [Compound 1, Ethyl 2-(2-(10-Hydroxy-2,4a,6a,6b,9,9,12a-heptamethyl-13-oxo-1,2,3,4,4a,5,6,6a,6b,7,8,8a,9,10,11,12,12a,12b,13,14b-icosahydropicene-2-carboxamido)acetamido)acetate]	18 ± 0.15	20 ± 0.25	15 ± 0.16	30 ± 0.21		15 ± 0.16		weak effect		160 to 162	7		65.3%				
CC(=O)N1CCN(c2ccc(OCC3COC(Cn4ccnc4)(c4ccc(Cl)cc4Cl)O3)cc2)CC1 (stereo not shown) [KC, ketoconazole, reference compound]												22.8 ± 0.10					
CCCC(NC(=O)C(CC(C)C)NC(=O)OC(C)(C)C)C(=O)OC1CCC2(C)C(CCC3(C)C2C(=O)C=C2C4CC(C)(C(=O)NCC(=O)NCC(=O)OCC)CCC4(C)CCC23C)C1(C)C (stereo not shown) [Compound 2, 11-(2-(2-Ethoxy-2-oxoethylamino)-2-oxoethylcarbamoyl)-4,4,6a,6b,8a,11,14b-heptamethyl-14-oxo-1,2,3,4,4a,5,6,6a,6b,7,8,8a,9,10,11,12,12a,14,14a,14b-icosahydropicen-3-yl 2-(2-(tert-Butoxycarbonylamino)-4-methylpentanamido)pentanoate]	15 ± 0.25	18 ± 0.14	12 ± 0.82	30 ± 0.13		17 ± 0.11	7.7 ± 1.3 (≈ 8.32 µM)	92.63%	70.3 ± 0.9 (≈ 76 µM)	169 to 171							
CC(C)CC(NC(=O)CNC(=O)CNC(=O)C1(C)CCC2(C)CCC3(C)C(=CC(=O)C4C5(C)CCC(O)C(C)(C)C5CCC43C)C2C1)C(=O)O (stereo not shown) [Compound 7, 2-(2-(2-(10-Hydroxy-2,4a, 6a, 6b, 9,9, 12a-heptamethyl-13-oxo-1,2,3,4,4a, 5,6,6a, 6b, 7,8,8a, 9, 10, 11, 12, 12a, 12b, 13, 14b-icosahydropicene-2-carboxamido)acetamido)acetamido)-4-methylpentanoic Acid]	13 ± 0.14	15 ± 0.21		30 ± 0.11	12 ± 0.14		3.7 ± 0.2 (≈ 5.3 µM)	98.06%	3 ± 1.1 (≈ 4.3 µM)	210 to 212				96.76	3.3 ± 0.1 (≈ 4.73 µM)		
COC(=O)C(CC(C)C)NC(=O)CNC(=O)CNC(=O)C1(C)CCC2(C)CCC3(C)C(=CC(=O)C4C5(C)CCC(O)C(C)(C)C5CCC43C)C2C1 (stereo not shown) [Compound 6, Methyl 2-(2-(2-(10-Hydroxy-2,4a,6a,6b,9,9,12a-heptamethyl-13-oxo-1,2,3,4,4a,5,6,6a,6b,7,8,8a,9,10,11,12,12a,12b,13,14b-icosahydropicene-2-carboxamido)acetamido)acetamido)-4-methylpentanoate]								weak effect		170 to 172			weak cytotoxic effect				
CCOC(=O)CNC(=O)CNC(=O)CNC(=O)CNC(=O)C1(C)CCC2(C)CCC3(C)C(=CC(=O)C4C5(C)CCC(O)C(C)(C)C5CCC43C)C2C1 (stereo not shown) [Compound 4, Ethyl 1-(10-Hydroxy-2,4a,6a,6b,9,9,12a-heptamethyl-13-oxo-1,2,3,4,4a,5,6,6a,6b,7,8,8a,9,10,11,12,12a,12b,13,14b-icosahydropicen-2-yl)-1,4,7,10-tetraoxo-2,5,8,11-tetraazatridecan-13-oate] (X1-GGGG-OEt)	13 ± 0.16	13 ± 0.15	11 ± 0.24	29 ± 0.13	12 ± 0.23	10 ± 0.13	6.1 ± 0.4 (≈ 8.39 µM)		73 ± 1.4 (≈ 100 µM)	130 to 133		15 ± 0.12				84.80	
COc1cc2c(c(OC)c1OC)-c1ccc(OC)c(=O)cc1[C@@H](NC(C)=O)CC2 [colchicine, reference compound]																	40.7
